# Data as given in article PMC3878827, “Synthesis and biological characterisation of ^18F-SIG343 and ^18F-SIG353, novel and high selectivity σ2 radiotracers, for tumour imaging properties” (EJNMMI Research, 2013).
# Columns and labels:
# σ1 receptors = target: T1, σ1 receptors (Rattus norvegicus, UniProt Q9R0C9); assay: Radioreceptor binding assay, σ1 (3H-(+)-pentazocine, rat brain membrane); settings: determined by ANSTO LifeSciences, read-out: Affinity σ1 (Ki)
# T1 construct: aliquots of diluted rat brain membrane (300 μg of protein); from tissue; host or cells: male Sprague-Dawley rat brain membrane homogenate
# T1 sequence (Q9R0C9 whole entry): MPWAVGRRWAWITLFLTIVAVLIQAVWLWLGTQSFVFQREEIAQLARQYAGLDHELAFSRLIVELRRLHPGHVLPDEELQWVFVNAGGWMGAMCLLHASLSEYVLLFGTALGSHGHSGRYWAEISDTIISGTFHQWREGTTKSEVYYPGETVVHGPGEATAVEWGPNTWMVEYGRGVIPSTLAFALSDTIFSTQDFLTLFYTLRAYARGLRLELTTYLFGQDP
# Protocol: (§1) The test compounds were solubilised in DMSO and diluted in 50 mmol/L Tris-HCl (pH 8.0). Membrane homogenates were prepared from male Sprague-Dawley rat brains as previously described. The binding of σ ligands to σ1 and σ2 receptors was determined according to literature methods with minor modification. Briefly, the percentage of inhibition was determined by incubating, in triplicate, aliquots of diluted rat brain membrane (300 μg of protein) with 10^-11 to 10^-5 mol/L concentrations of the studied drugs in 50 mmol/L Tris-HCl (pH 8.0) with ^3H-(+)-pentazocine (3 nmol/L) at 37°C for 2.5 h for σ1 receptors or with ^3H-DTG (10 nmol/L) and (+)-pentazocine (1 μmol/L) at 25°C for 1.5 h for σ2 receptors. […] After incubation, the reaction was terminated by rapid filtration using a Brandel 48-well cell harvester (Brandel, Gaithersburg, MD, USA) over Whatman GF/B glass fibre filters that were soaked in a solution of 0.5% polyethyleneimine at 4°C for at least 2 h before use. […] The filters were collected and the amount of bound radioactivity was measured using a β-scintillation counter (Tri-Carb 2100TR, Packard Instrument Co., Downers Grove, IL, USA). The percentage inhibition of the studied drugs, at concentrations of 10^-5 and 10^-7 mol/L, was also determined for the cross activity at a number of other neuroreceptors (Caliper LifeSciences, MA, USA). […]
# σ2 receptors = target: T2, σ2 receptors (Rattus norvegicus, UniProt Q5U3Y7); assay: Radioreceptor binding assay, σ2 (3H-DTG + (+)-pentazocine, rat brain membrane); settings: for Ki: rat brain membrane, 3H-DTG with (+)-pentazocine, determined by ANSTO LifeSciences, read-out: Affinity σ2 (Ki); for Selectivity σ2:σ1: ratio of Ki values, Table 2
# T2 sequence (Q5U3Y7 1-176): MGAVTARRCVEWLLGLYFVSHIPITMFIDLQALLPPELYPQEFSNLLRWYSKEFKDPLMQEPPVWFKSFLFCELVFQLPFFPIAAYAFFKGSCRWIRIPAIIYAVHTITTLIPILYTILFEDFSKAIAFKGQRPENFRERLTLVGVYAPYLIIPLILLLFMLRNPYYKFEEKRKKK
# Protocol: The test compounds were solubilised in DMSO and diluted in 50 mmol/L Tris-HCl (pH 8.0). Membrane homogenates were prepared from male Sprague-Dawley rat brains as previously described. The binding of σ ligands to σ1 and σ2 receptors was determined according to literature methods with minor modification. Briefly, the percentage of inhibition was determined by incubating, in triplicate, aliquots of diluted rat brain membrane (300 μg of protein) with 10^-11 to 10^-5 mol/L concentrations of the studied drugs in 50 mmol/L Tris-HCl (pH 8.0) with ^3H-(+)-pentazocine (3 nmol/L) at 37°C for 2.5 h for σ1 receptors or with ^3H-DTG (10 nmol/L) and (+)-pentazocine (1 μmol/L) at 25°C for 1.5 h for σ2 receptors. […] After incubation, the reaction was terminated by rapid filtration using a Brandel 48-well cell harvester (Brandel, Gaithersburg, MD, USA) over Whatman GF/B glass fibre filters that were soaked in a solution of 0.5% polyethyleneimine at 4°C for at least 2 h before use. Filters were washed three times with 5 mL of ice-cold wash buffer (50 mmol/L Tris HCl, pH 7.4). The filters were collected and the amount of bound radioactivity was measured using a β-scintillation counter (Tri-Carb 2100TR, Packard Instrument Co., Downers Grove, IL, USA). The percentage inhibition of the studied drugs, at concentrations of 10^-5 and 10^-7 mol/L, was also determined for the cross activity at a number of other neuroreceptors (Caliper LifeSciences, MA, USA). The IC50 values were then converted to apparent Ki values using the Cheng-Prusoff equation and radioligand Kd values.
# Opioid, non-selective = assay: Cross activity at neuroreceptors (Caliper LifeSciences): opioid; format: binding; settings: determined by Caliper LifeSciences; read-out: Affinity Opioid, non-selective (IC50)
# Protocol: as §1
# Dopamine, non-selective = assay: Cross activity at neuroreceptors (Caliper LifeSciences): dopamine; format: binding; settings: determined by Caliper LifeSciences; read-out: Affinity Dopamine, non-selective (IC50)
# Protocol: as §1
# Serotonin, non-selective = assay: Cross activity at neuroreceptors (Caliper LifeSciences): serotonin; format: binding; settings: determined by Caliper LifeSciences; read-out: Affinity Serotonin, non-selective (IC50)
# Protocol: as §1
# CB1, non-selective = target: T3, CB1, non-selective (Homo sapiens, UniProt P21554); assay: Cross activity at neuroreceptors (Caliper LifeSciences): CB1; format: binding; settings: determined by Caliper LifeSciences; read-out: Affinity CB1, non-selective (IC50)
# T3 construct: Caliper LifeSciences
# T3 sequence (P21554 whole entry): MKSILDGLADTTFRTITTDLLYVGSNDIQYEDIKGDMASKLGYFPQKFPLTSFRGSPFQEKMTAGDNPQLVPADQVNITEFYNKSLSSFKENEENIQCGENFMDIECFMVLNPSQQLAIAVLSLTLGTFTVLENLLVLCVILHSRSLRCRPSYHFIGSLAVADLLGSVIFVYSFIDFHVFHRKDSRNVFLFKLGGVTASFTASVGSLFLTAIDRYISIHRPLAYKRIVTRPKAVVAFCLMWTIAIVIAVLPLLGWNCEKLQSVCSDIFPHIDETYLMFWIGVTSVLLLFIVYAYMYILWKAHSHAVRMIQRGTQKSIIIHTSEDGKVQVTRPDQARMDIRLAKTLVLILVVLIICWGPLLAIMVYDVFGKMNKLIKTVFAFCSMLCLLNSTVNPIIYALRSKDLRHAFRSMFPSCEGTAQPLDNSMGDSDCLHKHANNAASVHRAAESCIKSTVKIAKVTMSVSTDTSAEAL
# Protocol: as §1
# [1] = target: Muscarinic, non-selective; assay: Cross activity at neuroreceptors (Caliper LifeSciences): muscarinic; format: binding; settings: determined by Caliper LifeSciences; read-out: Affinity Muscarinic, non-selective (IC50)
# Protocol: as §1
# [2] = Lipophilicity by RP-HPLC (logP7.5); format: physicochemical; settings: logP7.5, phosphate buffer pH 7.5
# Protocol: The lipophilicity of SIG343 and SIG353 were assessed using RP-HPLC by determining the logP7.5 value using literature procedures.
# [3] = rats, intravenous bolus; cited from earlier work
SMILES,Ki (σ1 receptors),Ki (σ2 receptors),Selectivity σ2:σ1 (σ2 receptors),"IC50 (Opioid, non-selective)","IC50 (Dopamine, non-selective)","IC50 (Serotonin, non-selective)","IC50 (CB1, non-selective)",IC50 [1],chromatographic logP [2],Terminal half-life [3]
"COc1cc2c(cc1OC)CN(CCCCN1C(=O)c3ccc(F)cc3C1=O)CC2 [SIG343, 2-(4-(6,7-Dimethoxy-3,4-dihydroisoquinolin-2(1H)-yl)butyl)-5-fluoroisoindoline-1,3-dione]",1.6 µM,0.008 µM,200,> 10 µM,> 10 µM,> 10 µM,> 10 µM,> 10 µM,3.11 ± 0.08,–
O=C(CCCN1CCC(O)(c2ccc(Cl)cc2)CC1)c1ccc(F)cc1 [haloperidol],–,–,–,–,–,–,–,–,–,1.5 h
"COc1cc2c(cc1OC)CN(CCCCCN1C(=O)c3ccc(F)cc3C1=O)CC2 [SIG353, 2-(5-(6,7-Dimethoxy-3,4-dihydroisoquinolin-2(1H)-yl)pentyl)-5-fluoroisoindoline-1,3-dione]",0.266 µM,0.0024 µM,110,> 10 µM,> 10 µM,> 10 µM,> 10 µM,> 10 µM,3.47 ± 0.09,–
